Reference: PubChem BioAssay AID1963427 (Molecular Pharmacology Branch, DTP, NCI, 2024)

System: 317291-083-R-J1-PDC complex spheroid growth
Assay: Anticancer human tumor 317291-083-R-J1-PDC patient-derived soft tissue sarcoma cell line growth inhibition [Asc]
Settings: for IC50: curve of first compound; for viability, T/C: stronger effect = lower value
Procedure, shortened: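 Complex spheroids combining tumor cells with HUVEC endothelial cells and human MSCs, at 37 degrees C, 5% CO2; agents tested alone or combined, half-log dilutions from at or near clinical Cmax, or 10 microM if Cmax unknown.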

[1] = second compound 0.00316 µM, first compound 0.0316 µM
[2] = second compound 0.00316 µM, first compound 0.1 µM
[3] = second compound 0.00316 µM, first compound 0.316 µM
[4] = second compound 0.00316 µM, first compound 1 µM
[5] = second compound 0.01 µM, first compound 0.0316 µM
[6] = second compound 0.01 µM, first compound 0.1 µM
[7] = second compound 0.01 µM, first compound 0.316 µM
[8] = second compound 0.01 µM, first compound 1 µM
[9] = second compound 0.0316 µM, first compound 0.0316 µM
[10] = second compound 0.0316 µM, first compound 0.1 µM
[11] = second compound 0.0316 µM, first compound 0.316 µM
[12] = second compound 0.0316 µM, first compound 1 µM
[13] = second compound 0.1 µM, first compound 0.0316 µM
[14] = second compound 0.1 µM, first compound 0.1 µM
[15] = second compound 0.1 µM, first compound 0.316 µM
[16] = second compound 0.1 µM, first compound 1 µM
[17] = second compound 0.316 µM, first compound 0.0316 µM
[18] = second compound 0.316 µM, first compound 0.1 µM
[19] = second compound 0.316 µM, first compound 0.316 µM
[20] = second compound 0.316 µM, first compound 1 µM
[21] = second compound 1 µM, first compound 0.0316 µM
[22] = second compound 1 µM, first compound 0.1 µM
[23] = second compound 1 µM, first compound 0.316 µM
[24] = second compound 1 µM, first compound 1 µM
[25] = second compound 0.00316 µM, first compound 0.00316 µM
[26] = second compound 0.00316 µM, first compound 0.01 µM
[27] = second compound 0.01 µM, first compound 0.00316 µM
[28] = second compound 0.01 µM, first compound 0.01 µM
[29] = second compound 0.0316 µM, first compound 0.00316 µM
[30] = second compound 0.0316 µM, first compound 0.01 µM
[31] = second compound 0.1 µM, first compound 0.00316 µM
[32] = second compound 0.1 µM, first compound 0.01 µM
[33] = second compound 0.316 µM, first compound 0.00316 µM
[34] = second compound 0.316 µM, first compound 0.01 µM
[35] = second compound 1 µM, first compound 0.00316 µM
[36] = second compound 1 µM, first compound 0.01 µM
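Further: compound exposure lasted seven days after spheroids formed for three days.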
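Wherever viability, T/C is given: 100% = DMSO vehicle control wells.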

Structure (SMILES): C=CC(=O)N1CCN(c2nc(=O)n(-c3c(C)ccnc3C(C)C)c3nc(-c4c(O)cccc4F)c(F)cc23)C(C)C1 (stereo unspecified) + CNC(C)C(=O)NC1CN(S(=O)(=O)c2cccc(S(=O)(=O)N3CCC4CCC(C(=O)NC(c5ccccc5)c5ccccc5)N4C(=O)C(NC(=O)C(C)NC)C3)c2)CCC2CCC(C(=O)NC(c3ccccc3)c3ccccc3)N2C1=O
- IC50 (second compound 0.00316 µM): 9720 nM
- IC50 (second compound 0.01 µM): > 10000 nM
- IC50 (second compound 0.0316 µM): 5560 nM
- IC50 (second compound 0.1 µM): 4400 nM
- IC50 (second compound 0.316 µM): 1090 nM
- IC50 (second compound 1 µM): < 31.6 nM
- viability, T/C [1]: 96%
- viability, T/C [2]: 100%
- viability, T/C [3]: 85.2%
- viability, T/C [4]: 91.3%
- viability, T/C (second compound 0.00316 µM, first compound 3.16 µM): 93.5%
- viability, T/C (second compound 0.00316 µM, first compound 10 µM): 48.9%
- viability, T/C [5]: 92.9%
- viability, T/C [6]: 77.4%
- viability, T/C [7]: 83.3%
- viability, T/C [8]: 97.1%
- viability, T/C (second compound 0.01 µM, first compound 3.16 µM): 62.5%
- viability, T/C (second compound 0.01 µM, first compound 10 µM): 56.9%
- viability, T/C [9]: 93.1%
- viability, T/C [10]: 70.1%
- viability, T/C [11]: 77.4%
- viability, T/C [12]: 73.7%
- viability, T/C (second compound 0.0316 µM, first compound 3.16 µM): 71.7%
- viability, T/C (second compound 0.0316 µM, first compound 10 µM): 28.8%
- viability, T/C [13]: 68.7%
- viability, T/C [14]: 54.2%
- viability, T/C [15]: 59.9%
- viability, T/C [16]: 62.8%
- viability, T/C (second compound 0.1 µM, first compound 3.16 µM): 57.6%
- viability, T/C (second compound 0.1 µM, first compound 10 µM): 30.4%
- viability, T/C [17]: 57.2%
- viability, T/C [18]: 42.9%
- viability, T/C [19]: 62.1%
- viability, T/C [20]: 48.9%
- viability, T/C (second compound 0.316 µM, first compound 3.16 µM): 39%
- viability, T/C (second compound 0.316 µM, first compound 10 µM): 23.5%
- viability, T/C [21]: 49%
- viability, T/C [22]: 28.6%
- viability, T/C [23]: 32.2%
- viability, T/C [24]: 35%
- viability, T/C (second compound 1 µM, first compound 3.16 µM): 30.6%
- viability, T/C (second compound 1 µM, first compound 10 µM): 13.5%

Structure (SMILES): COc1c(OCCCN2CCOCC2)ccc2c3n(c(=NC(=O)c4cnc(N)nc4)nc12)CCN3 + CNC(C)C(=O)NC1CN(S(=O)(=O)c2cccc(S(=O)(=O)N3CCC4CCC(C(=O)NC(c5ccccc5)c5ccccc5)N4C(=O)C(NC(=O)C(C)NC)C3)c2)CCC2CCC(C(=O)NC(c3ccccc3)c3ccccc3)N2C1=O
- IC50 (second compound 0.00316 µM): 79.4 nM
- IC50 (second compound 0.01 µM): 68.4 nM
- IC50 (second compound 0.0316 µM): 68.7 nM
- IC50 (second compound 0.1 µM): 5.31 nM
- IC50 (second compound 0.316 µM): 43 nM
- IC50 (second compound 1 µM): < 3.16 nM
- viability, T/C [25]: 80.1%
- viability, T/C [26]: 81%
- viability, T/C [1]: 68.1%
- viability, T/C [2]: 43.5%
- viability, T/C [3]: 28.3%
- viability, T/C [4]: 15.5%
- viability, T/C [27]: 72.6%
- viability, T/C [28]: 103%
- viability, T/C [5]: 61.4%
- viability, T/C [6]: 42.6%
- viability, T/C [7]: 22.7%
- viability, T/C [8]: 13.3%
- viability, T/C [29]: 76.5%
- viability, T/C [30]: 73.2%
- viability, T/C [9]: 77%
- viability, T/C [10]: 37.7%
- viability, T/C [11]: 18.2%
- viability, T/C [12]: 11%
- viability, T/C [31]: 53.8%
- viability, T/C [32]: 44.8%
- viability, T/C [13]: 38.9%
- viability, T/C [14]: 34.2%
- viability, T/C [15]: 16.9%
- viability, T/C [16]: 10.7%
- viability, T/C [33]: 56%
- viability, T/C [34]: 44.4%
- viability, T/C [17]: 68.8%
- viability, T/C [18]: 32.3%
- viability, T/C [19]: 13.8%
- viability, T/C [20]: 11%
- viability, T/C [35]: 33.2%
- viability, T/C [36]: 36%
- viability, T/C [21]: 27.2%
- viability, T/C [22]: 19.2%
- viability, T/C [23]: 9.14%
- viability, T/C [24]: 5.37%

Structure (SMILES): NC1CCC(NC2CC2c2ccccc2)CC1 (stereo unspecified) + CNC(C)C(=O)NC1CN(S(=O)(=O)c2cccc(S(=O)(=O)N3CCC4CCC(C(=O)NC(c5ccccc5)c5ccccc5)N4C(=O)C(NC(=O)C(C)NC)C3)c2)CCC2CCC(C(=O)NC(c3ccccc3)c3ccccc3)N2C1=O
- IC50 (second compound 0.00316 µM): > 100 nM
- IC50 (second compound 0.01 µM): > 100 nM
- IC50 (second compound 0.0316 µM): > 100 nM
- IC50 (second compound 0.1 µM): > 100 nM
- IC50 (second compound 0.316 µM): < 0.316 nM
- IC50 (second compound 1 µM): < 0.316 nM
- viability, T/C (second compound 0.00316 µM, first compound 0.000316 µM): 83.2%
- viability, T/C (second compound 0.00316 µM, first compound 0.001 µM): 88.8%
- viability, T/C [25]: 84.5%
- viability, T/C [26]: 96%
- viability, T/C [1]: 80.5%
- viability, T/C [2]: 74.5%
- viability, T/C (second compound 0.01 µM, first compound 0.000316 µM): 93%
- viability, T/C (second compound 0.01 µM, first compound 0.001 µM): 80.6%
- viability, T/C [27]: 86.9%
- viability, T/C [28]: 93.7%
- viability, T/C [5]: 82.3%
- viability, T/C [6]: 76.7%
- viability, T/C (second compound 0.0316 µM, first compound 0.000316 µM): 102%
- viability, T/C (second compound 0.0316 µM, first compound 0.001 µM): 73.7%
- viability, T/C [29]: 77%
- viability, T/C [30]: 70.1%
- viability, T/C [9]: 89.5%
- viability, T/C [10]: 57.4%
- viability, T/C (second compound 0.1 µM, first compound 0.000316 µM): 67.5%
- viability, T/C (second compound 0.1 µM, first compound 0.001 µM): 52%
- viability, T/C [31]: 69.1%
- viability, T/C [32]: 49%
- viability, T/C [13]: 69.3%
- viability, T/C [14]: 64.7%
- viability, T/C (second compound 0.316 µM, first compound 0.000316 µM): 43.2%
- viability, T/C (second compound 0.316 µM, first compound 0.001 µM): 56.5%
- viability, T/C [33]: 48%
- viability, T/C [34]: 54%
- viability, T/C [17]: 61.9%
- viability, T/C [18]: 44%
- viability, T/C (second compound 1 µM, first compound 0.000316 µM): 37.5%
- viability, T/C (second compound 1 µM, first compound 0.001 µM): 39.7%
- viability, T/C [35]: 34.5%
- viability, T/C [36]: 36.8%
- viability, T/C [21]: 46.1%
- viability, T/C [22]: 36.8%
